Assay [1] has as its target T1, cGMP-dependent protein kinase 1 (Homo sapiens) (UniProt Q13976).
T1 sequence (whole entry): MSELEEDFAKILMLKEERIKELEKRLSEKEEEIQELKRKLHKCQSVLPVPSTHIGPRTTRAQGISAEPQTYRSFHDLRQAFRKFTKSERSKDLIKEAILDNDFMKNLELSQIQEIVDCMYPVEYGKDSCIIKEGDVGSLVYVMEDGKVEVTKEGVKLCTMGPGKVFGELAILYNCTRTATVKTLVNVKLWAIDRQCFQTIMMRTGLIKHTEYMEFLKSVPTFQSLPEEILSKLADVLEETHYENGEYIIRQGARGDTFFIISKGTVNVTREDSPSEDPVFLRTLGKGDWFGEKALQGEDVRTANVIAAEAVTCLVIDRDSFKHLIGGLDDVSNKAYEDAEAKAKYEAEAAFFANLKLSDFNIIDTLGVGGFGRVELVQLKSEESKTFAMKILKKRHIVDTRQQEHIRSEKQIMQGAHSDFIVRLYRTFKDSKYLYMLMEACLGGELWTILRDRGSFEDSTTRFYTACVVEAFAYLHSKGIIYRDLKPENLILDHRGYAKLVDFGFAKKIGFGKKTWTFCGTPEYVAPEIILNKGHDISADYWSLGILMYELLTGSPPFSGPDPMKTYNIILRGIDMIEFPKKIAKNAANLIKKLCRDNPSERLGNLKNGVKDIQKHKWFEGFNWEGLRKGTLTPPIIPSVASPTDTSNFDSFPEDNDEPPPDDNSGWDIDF
Briefly: Inhibition of human full length PKG-1a expressed in baculovirus assessed as substrate phosphorylation using fluorescence-labelled peptides as substrate at 420 uM after 90 mins by microfluidic peptide phosphorylation assay.

For assay [2], the target named is RAC-alpha serine/threonine-protein kinase (Homo sapiens) (UniProt P31749). To be noted: 0.1 uM.
Description: Inhibition of human AKT1 catalytic domain expressed in baculovirus assessed as substrate phosphorylation using fluorescence-labelled peptides as substrate at 0.1 uM after 90 mins by microfluidic peptide phosphorylation assay
For assay [3], the system named is Tyrosine-protein kinase ABL1 (Homo sapiens), P00519 [T315I]. To be noted: 0.1 uM.
For assay [4], the target named is Mitogen-activated protein kinase 3 (Homo sapiens) (UniProt P27361). Briefly: Inhibition of human full length ERK1 expressed in Escherichia coli cell assessed as substrate phosphorylation using fluorescence-labelled peptides as substrate at 0.06 uM after 90 mins by microfluidic peptide phosphorylation assay.
Assay [5] concerns the target T2, Serine/threonine-protein kinase D2 (Homo sapiens) (UniProt Q9BZL6).
T2 sequence (whole entry): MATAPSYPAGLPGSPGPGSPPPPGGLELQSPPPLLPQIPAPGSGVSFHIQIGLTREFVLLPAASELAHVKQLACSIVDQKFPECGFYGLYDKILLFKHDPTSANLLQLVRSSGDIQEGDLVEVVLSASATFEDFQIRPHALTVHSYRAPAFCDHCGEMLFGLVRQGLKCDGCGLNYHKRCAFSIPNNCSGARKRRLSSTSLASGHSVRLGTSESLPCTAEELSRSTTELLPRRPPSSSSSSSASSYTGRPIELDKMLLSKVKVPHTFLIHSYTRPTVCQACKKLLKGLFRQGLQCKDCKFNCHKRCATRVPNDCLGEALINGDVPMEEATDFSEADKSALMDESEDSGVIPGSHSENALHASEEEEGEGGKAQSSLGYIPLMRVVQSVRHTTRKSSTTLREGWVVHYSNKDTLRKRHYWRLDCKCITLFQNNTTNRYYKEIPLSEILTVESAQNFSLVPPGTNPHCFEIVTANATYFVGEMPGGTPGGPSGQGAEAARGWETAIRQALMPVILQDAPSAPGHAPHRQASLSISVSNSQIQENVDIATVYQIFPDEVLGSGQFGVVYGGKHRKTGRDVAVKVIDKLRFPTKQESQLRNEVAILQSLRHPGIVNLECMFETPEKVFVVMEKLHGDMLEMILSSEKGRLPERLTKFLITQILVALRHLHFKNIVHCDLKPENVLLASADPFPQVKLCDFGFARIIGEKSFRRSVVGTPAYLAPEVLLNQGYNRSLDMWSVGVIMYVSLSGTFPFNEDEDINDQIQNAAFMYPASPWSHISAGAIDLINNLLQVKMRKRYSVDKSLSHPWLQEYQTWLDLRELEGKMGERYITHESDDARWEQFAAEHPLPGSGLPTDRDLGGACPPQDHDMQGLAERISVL
Description: Inhibition of human full length PKD2 expressed in baculovirus assessed as substrate phosphorylation using fluorescence-labelled peptides as substrate at 0.06 uM after 90 mins by microfluidic peptide phosphorylation assay.

Assay [6] addresses T3, Testis-specific serine/threonine-protein kinase 2 (Homo sapiens) (UniProt Q96PF2).
T3 sequence (whole entry): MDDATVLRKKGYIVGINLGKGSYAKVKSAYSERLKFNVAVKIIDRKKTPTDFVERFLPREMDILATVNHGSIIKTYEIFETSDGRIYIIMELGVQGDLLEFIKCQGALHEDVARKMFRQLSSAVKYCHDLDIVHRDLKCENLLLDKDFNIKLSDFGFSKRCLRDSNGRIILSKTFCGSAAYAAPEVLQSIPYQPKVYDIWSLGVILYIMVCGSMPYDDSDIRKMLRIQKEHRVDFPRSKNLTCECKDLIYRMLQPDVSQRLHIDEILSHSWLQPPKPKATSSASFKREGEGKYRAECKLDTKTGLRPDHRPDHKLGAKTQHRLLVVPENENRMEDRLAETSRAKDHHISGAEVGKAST
Briefly: Inhibition of human full length TSSK2 expressed in baculovirus assessed as substrate phosphorylation using fluorescence-labelled peptides as substrate at 0.2 uM after 90 mins by microfluidic peptide phosphorylation assay.

Assay [7] concerns the target Fibroblast growth factor receptor 1 (Homo sapiens) (UniProt P11362). Description: Inhibition of human FGFR1 catalytic domain expressed in baculovirus assessed as substrate phosphorylation using fluorescence-labelled peptides as substrate at 9 uM after 90 mins by microfluidic peptide phosphorylation assay.
Assay [8] addresses Aurora kinase B (Homo sapiens) (UniProt Q96GD4). Description: Inhibition of human full length AurB expressed in baculovirus assessed as substrate phosphorylation using fluorescence-labelled peptides as substrate at 2 uM after 90 mins by microfluidic peptide phosphorylation assay.
Assay [9] has as its target T1, cGMP-dependent protein kinase 1 (Homo sapiens). Description: Inhibition of human full length PKG-1a expressed in baculovirus assessed as substrate phosphorylation using fluorescence-labelled peptides as substrate at 95 uM after 90 mins by microfluidic peptide phosphorylation assay.

Chain of Fibroblast growth factor receptor 1 (Homo sapiens) (P11362 22-822 limits assumed): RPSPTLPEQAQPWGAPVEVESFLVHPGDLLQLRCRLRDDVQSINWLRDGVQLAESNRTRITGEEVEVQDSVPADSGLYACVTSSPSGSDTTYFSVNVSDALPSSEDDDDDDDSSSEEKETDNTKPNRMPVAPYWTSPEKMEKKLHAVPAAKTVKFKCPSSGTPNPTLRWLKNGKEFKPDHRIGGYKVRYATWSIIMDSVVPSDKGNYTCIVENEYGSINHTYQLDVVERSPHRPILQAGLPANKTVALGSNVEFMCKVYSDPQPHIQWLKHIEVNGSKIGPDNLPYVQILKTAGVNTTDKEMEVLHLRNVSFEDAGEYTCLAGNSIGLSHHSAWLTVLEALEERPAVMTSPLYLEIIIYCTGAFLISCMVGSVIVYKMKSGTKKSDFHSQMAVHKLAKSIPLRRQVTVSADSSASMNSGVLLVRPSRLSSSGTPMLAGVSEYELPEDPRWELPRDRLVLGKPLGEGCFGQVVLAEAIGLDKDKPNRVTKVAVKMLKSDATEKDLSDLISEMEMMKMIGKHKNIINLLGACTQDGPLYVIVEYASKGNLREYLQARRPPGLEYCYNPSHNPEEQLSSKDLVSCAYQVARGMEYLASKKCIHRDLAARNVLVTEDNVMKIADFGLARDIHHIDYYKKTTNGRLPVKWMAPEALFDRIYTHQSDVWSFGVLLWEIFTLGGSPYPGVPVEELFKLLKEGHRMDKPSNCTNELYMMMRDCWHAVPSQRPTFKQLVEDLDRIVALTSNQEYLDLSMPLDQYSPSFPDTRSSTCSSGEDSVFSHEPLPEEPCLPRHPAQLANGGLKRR
Chain of Mitogen-activated protein kinase 3 (Homo sapiens) (P27361 whole entry): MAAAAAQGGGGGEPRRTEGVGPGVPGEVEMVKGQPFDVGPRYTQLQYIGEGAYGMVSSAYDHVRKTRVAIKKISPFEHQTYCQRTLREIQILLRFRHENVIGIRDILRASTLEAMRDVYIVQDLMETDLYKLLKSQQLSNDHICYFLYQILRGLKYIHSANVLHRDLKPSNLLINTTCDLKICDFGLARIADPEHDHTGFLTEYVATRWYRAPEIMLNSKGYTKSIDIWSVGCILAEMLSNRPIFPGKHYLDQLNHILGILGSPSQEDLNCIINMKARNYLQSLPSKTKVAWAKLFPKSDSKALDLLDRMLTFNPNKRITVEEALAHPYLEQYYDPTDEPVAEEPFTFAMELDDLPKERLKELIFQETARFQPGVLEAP
Chain of RAC-alpha serine/threonine-protein kinase (Homo sapiens) (P31749 whole entry): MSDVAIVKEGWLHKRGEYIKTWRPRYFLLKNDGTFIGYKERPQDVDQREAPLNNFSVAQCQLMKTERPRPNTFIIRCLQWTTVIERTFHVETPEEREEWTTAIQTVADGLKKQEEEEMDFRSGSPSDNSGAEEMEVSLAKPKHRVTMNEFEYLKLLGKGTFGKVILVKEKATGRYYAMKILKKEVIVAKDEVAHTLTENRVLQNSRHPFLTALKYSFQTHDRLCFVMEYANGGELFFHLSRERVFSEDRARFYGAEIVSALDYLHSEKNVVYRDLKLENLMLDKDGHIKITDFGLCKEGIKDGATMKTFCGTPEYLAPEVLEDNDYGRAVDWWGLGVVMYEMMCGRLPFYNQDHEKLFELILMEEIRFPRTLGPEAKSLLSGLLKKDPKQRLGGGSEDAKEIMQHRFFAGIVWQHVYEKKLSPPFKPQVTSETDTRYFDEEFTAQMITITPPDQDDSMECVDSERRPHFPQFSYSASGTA
Chain of Aurora kinase B (Homo sapiens) (Q96GD4 whole entry): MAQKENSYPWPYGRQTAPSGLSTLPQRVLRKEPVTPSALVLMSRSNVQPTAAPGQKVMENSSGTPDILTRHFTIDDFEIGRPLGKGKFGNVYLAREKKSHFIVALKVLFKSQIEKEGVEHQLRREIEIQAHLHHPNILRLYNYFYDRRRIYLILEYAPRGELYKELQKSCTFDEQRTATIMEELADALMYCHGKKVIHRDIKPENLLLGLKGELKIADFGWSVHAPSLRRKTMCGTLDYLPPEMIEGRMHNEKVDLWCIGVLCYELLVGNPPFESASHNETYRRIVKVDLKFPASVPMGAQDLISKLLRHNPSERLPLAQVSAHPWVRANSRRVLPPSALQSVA

As for `c1nc(N2CCOCC2)c2nc[nH]c2n1`, the inhibition in [1] turned out to be 98%.
In the case of `C[C@H](CN(C)C)Oc1nc(Nc2cc3cccc(Cl)c3cn2)cnc1C#N`, the inhibition in assay [2] and in assay [3] was 0% throughout.
In the case of `NC1(Cc2ccc(Cl)cc2)CCN(c2ncnc3[nH]ccc23)CC1`, the inhibition in [4] is 0%; in assay [5] it was 1.5%.
In the case of `Clc1ccc(C2(c3ccc(-c4ncnc5[nH]cnc45)cc3)CCNCC2)cc1`, in assay [6], the inhibition was 7%.
`NCC1CN(c2ncnc3[nH]c4cnccc4c23)CCO1` (centres undefined): in assay [7], the inhibition is 55.5%.
Turning to `NC1CCN(c2ncnc3[nH]ccc23)CC1`, the inhibition in [8] came to 34%.
Turning to `NCCc1ccc(-c2ncnc3[nH]cnc23)cc1`, in assay [9], the inhibition is 92%.

The record behind these values is ChEMBL document CHEMBL3132769, “Fragment growing to retain or alter the selectivity of anchored kinase hinge-binding fragments” (Medchemcomm, 2014).
